According to article PMC7684578, “Isopedopeptins A–H: Cationic Cyclic Lipodepsipeptides from Pedobacter cryoconitis UP508 Targeting WHO Top-Priority Carbapenem-Resistant Bacteria” (ACS Chemical Biology, 2020):

Key:
cellular LPS receptors = target: cellular LPS receptors; parameters: method as in PMID 24281661; settings: read-out: IC50 inhibition of binding of bacterial LPS to cellular receptors; cited from earlier work
[1] = Bacterial membrane permeabilization assay (carboxyfluorescein leakage from liposomes); type: biochemical; settings: large unilamellar liposomes from E. coli phospholipid extract, 45 min, 37 °C

Question: Which IC50 (cellular LPS receptors) does the source give for polymyxin B here?
Answer: 3.6 nM

Question: And the EC50 [1]?
Answer: 1000 nM

Question: And the EC50 ([1]; listed as Polymyxin B)?
Answer: ~1000 nM
